25 compounds from patent US11932658B2 (BRISTOL-MYERS SQUIBB COMPANY, priority 2016, dated 2024) can be followed below.

Molecules are shown by their SMILES.

This test addresses T1, PAR4 (Homo sapiens, UniProt Q96RI0).
T1 construct: expressed in transfected cells; host or cells: HEK293 PAR4 Clone 1.2A (BMS Arctic ID 383940)
T1 sequence (Q96RI0 18-385): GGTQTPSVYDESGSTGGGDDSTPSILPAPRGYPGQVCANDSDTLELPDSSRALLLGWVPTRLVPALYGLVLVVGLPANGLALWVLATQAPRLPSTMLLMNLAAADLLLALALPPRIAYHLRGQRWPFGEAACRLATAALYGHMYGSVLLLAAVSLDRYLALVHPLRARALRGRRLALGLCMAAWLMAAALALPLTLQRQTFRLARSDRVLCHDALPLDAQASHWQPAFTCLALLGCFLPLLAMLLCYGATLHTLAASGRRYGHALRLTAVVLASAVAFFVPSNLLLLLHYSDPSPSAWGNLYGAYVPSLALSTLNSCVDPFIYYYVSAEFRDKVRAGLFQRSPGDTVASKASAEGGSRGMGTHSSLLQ
Description: PAR4 FLIPR assay (antagonism of agonist peptide-induced calcium mobilization). The class given is cell-based. The procedure, abridged: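 Antagonism was taken as block of calcium mobilization evoked by the agonist peptide H-Ala-Phe(4-F)-Pro-Gly-Trp-Leu-Val-Lys-Asn-[…]-NH2, added after 30 min room-temperature compound preincubation in dye-loaded PAR4-transfected HEK293 cells (endogenous PAR1). Fluorescence was read on FDSS, with compound addition alone used as the agonist counter-screen; values come from 11-point concentration-response curves.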
For `COc1cnc2c(-c3nc4cc(F)c5c(c4s3)C[C@@H](CNC(=O)NC3CC3)O5)cc(C)cc2n1` [Example 257, (S)-1-cyclopropyl-3-((5-fluoro-2-(2-methoxy-7-methylquinoxalin-5-yl)-7,8-dihydrobenzofuro[5,4-d]thiazol-7-yl)methyl)urea], the IC50 amounted to 50 nM.

With `COc1cnc2c(-c3nc4ccc5c(c4s3)C[C@@H](CNC(=O)OCc3cccc(C#N)c3)O5)cc(C)cc2n1` [Example 231, (S)-3-cyanobenzyl ((2-(2-methoxy-7-methylquinoxalin-5-yl)-7,8-dihydrobenzofuro[5,4-d]thiazol-7-yl)methy 1)carbamate], the IC50 was 5.8 nM.

For `COc1cnc2c(-c3nc4c(C)cc5c(c4s3)OCC(COC(=O)Nc3ccnc(F)c3)O5)cc(C)cc2n1` (stereo not shown) [Example 118, (2-(2-methoxy-7-methylquinoxalin-5-yl)-4-methyl-7,8-dihydro-[1,4]dioxino[2′,3′:3,4]benzo[1,2-d]thiazol-7-yl)methyl (2-fluoropyridin-4-yl)carbamate], the IC50 was 16 nM.

With `COc1cnc2c(-c3nc4c(C)cc5c(c4s3)OC[C@H](COC(=O)Nc3ccc(-n4cnc(C)n4)nc3)O5)cc(C)cc2n1` [Example 55, (R)-(2-(2-methoxy-7-methylquinoxalin-5-yl)-4-methyl-7,8-dihydro-[1,4]dioxino [2′,3′:3,4]benzo[1,2-d]thiazol-7-yl)methyl (6-(3-methyl-1H-1,2,4-triazol-1-yl)pyridin-3-yl)carbamate], the IC50 stood at 21 nM.

On to `COc1cnc2c(-c3nc4cc(F)c5c(c4s3)C[C@H](COC(=O)Nc3cccnc3)O5)cc(Cl)cc2c1` [Example 283, (R)-(2-(6-chloro-3-methoxyquinolin-8-yl)-5-fluoro-7,8-dihydrobenzofuro[5,4-d]thiazol-7-yl)methyl pyridin-3-ylcarbamate], for which the half-maximal inhibitory concentration (IC50) amounted to 2.2 nM.

As for `COCCOC(=O)NC[C@@H]1Cc2c(c(F)cc3nc(-c4cc(C)cc5nc(OC)cnc45)sc23)O1` [Example 250, (S)-2-methoxyethyl ((5-fluoro-2-(2-methoxy-7-methylquinoxalin-5-yl)-7,8-dihydrobenzofuro[5,4-d]thiazol-7-yl)methyl)carbamate], the 50% inhibitory concentration (IC50) is 2.3 nM.

Regarding `COc1cnc2c(-c3nc4c(C)cc5c(c4s3)OCC(COC(=O)Nc3ccc(C)nc3)O5)cc(Cl)cc2n1` (stereo not shown) [Example 97, (2-(7-chloro-2-methoxyquinoxalin-5-yl)-4-methyl-7,8-dihydro-[1,4]dioxino[2′,3′:3,4]benzo[1,2-d]thiazol-7-yl)methyl (6-methylpyridin-3-yl)carbamate], the concentration for half-maximal inhibition (IC50) stood at 64 nM.

In the case of `COc1cnc2c(-c3nc4c(C)cc5c(c4s3)OCC(COC(=O)Nc3cnc4[nH]ccc4c3)O5)cc(C)cc2n1` (stereo not shown) [Example 142, (2-(2-methoxy-7-methylquinoxalin-5-yl)-4-methyl-7,8-dihydro-[1,4]dioxino[2′,3′:3,4]benzo[1,2-d]thiazol-7-yl)methyl 1H-pyrrolo[2,3-b]pyridin-5-ylcarbamate], the IC50 stood at 2.9 nM.

`COc1cnc2c(-c3nc4cc(F)c5c(c4s3)C[C@@H](CNC(C)=O)O5)cc(C)cc2n1` [Example 209, (S)-N-((5-fluoro-2-(2-methoxy-7-methylquinoxalin-5-yl)-7,8-dihydrobenzofuro[5,4-d]thiazol-7-yl)methyl)acetamide]: the IC50 is 26 nM.

In the case of `COc1cnc2c(-c3nc4c(C)cc5c(c4s3)OCC(COC(=O)Nc3ccc(C)nc3)O5)cc(C)cc2n1` (stereo not shown) [Example 120, (2-(2-methoxy-7-methylquinoxalin-5-yl)-4-methyl-7,8-dihydro-[1,4]dioxino[2′,3′:3,4]benzo[1,2-d]thiazol-7-yl)methyl (6-methylpyridin-3-yl)carbamate], the 50% inhibitory concentration (IC50) worked out at 0.9 nM.

Turning to `COc1cnc2c(-c3nc4c(F)cc5c(c4s3)OC(COC(=O)Nc3ccccc3)CO5)cc(C)cc2n1` (stereo not shown) [Example 24, (4-fluoro-2-(2-methoxy-7-methylquinoxalin-5-yl)-7,8-dihydro-[1,4]dioxino[2′,3′:3,4]benzo[1,2-d]thiazol-8-yl)methyl phenylcarbamate], the 50% inhibitory concentration (IC50) was determined as 9 nM.

As to `COc1cnc2c(-c3nc4cc(F)c5c(c4s3)C[C@@](C)(CO)O5)cc(Cl)cc2c1` [Example 285, (S)-(2-(6-chloro-3-methoxyquinolin-8-yl)-5-fluoro-7-methyl-7,8-dihydrobenzofuro[5,4-d]thiazol-7-yl)methanol], the IC50 was found to be 1.5 nM.

For `C=Cc1cc(-c2nc3c(C)cc4c(c3s2)OCC(COC(=O)Nc2cccnc2)O4)c2ncc(OC)nc2c1` (stereo not shown) [Example 89, (2-(2-methoxy-7-vinylquinoxalin-5-yl)-4-methyl-7,8-dihydro-[1,4]dioxino[2′,3′:3,4]benzo [1,2-d]thiazol-7-yl)methyl pyridin-3-ylcarbamate], the concentration for half-maximal inhibition (IC50) is 20 nM.

Consider `COc1cnc2c(-c3nc4c(Cl)cc5c(c4s3)OC[C@H](COC(=O)Nc3cnc(F)c(C)c3)O5)cc(C)cc2n1` [Example 64, (R)-(4-chloro-2-(2-methoxy-7-methylquinoxalin-5-yl)-7,8-dihydro-[1,4]dioxino [2′,3′:3,4]benzo[1,2-d]thiazol-7-yl)methyl (6-fluoro-5-methylpyridin-3-yl)carbamate], for which the half-inhibitory concentration (IC50) was 2.5 nM.

For the compound `COc1cnc2c(-c3nc4c(C(O)C5(C(F)(F)F)CCC5)cc5c(c4s3)OCCO5)cc(C)cc2n1` (single isomer, unassigned) [Example 265, (2-(2-methoxy-7-methylquinoxalin-5-yl)-7,8-dihydro-[1,4]dioxino[2′,3′:3,4]benzo[1,2-d]thiazol-4-yl)(1-(trifluoromethyl)cyclobutyl)methanol], the half-maximal inhibitory concentration (IC50) was 1.9 nM.

As for `COc1cnc2c(-c3nc4cc(F)c5c(c4s3)C[C@H](COC(=O)Nc3cnc(C)nc3)O5)cc(Cl)cc2c1` [Example 267, (R)-(2-(6-chloro-3-methoxyquinolin-8-yl)-5-fluoro-7,8-dihydrobenzofuro[5,4-d]thiazol-7-yl)methyl (2-methylpyrimidin-5-yl)carbamate], the IC50 stood at 1.8 nM.

For `COc1ccc(NC(=O)OC[C@H]2COc3c(cc(F)c4nc(-c5cc(C)cc6nc(OC)cnc56)sc34)O2)cn1` [Example 68, (R)-(4-fluoro-2-(2-methoxy-7-methylquinoxalin-5-yl)-7,8-dihydro-[1,4]dioxino[2′,3′:3,4]benzo[1,2-d]thiazol-7-yl)methyl (6-methoxypyridin-3-yl)carbamate], the IC50 amounted to 1 nM.

For the compound `COc1cnc2c(-c3nc4cc(F)c5c(c4s3)C[C@H](COC(=O)Nc3ccc4c(c3)C(=O)NC4)O5)cc(C)cc2n1` [Example 178, (R)-(5-fluoro-2-(2-methoxy-7-methylquinoxalin-5-yl)-7,8-dihydrobenzofuro[5,4-d]thiazo 1-7-yl)methyl (3-oxoisoindolin-5-yl)carbamate], the IC50 is 2.3 nM.

Turning to `COc1cnc2c(-c3nc4c(C)cc5c(c4s3)OCC(COC(=O)Nc3ccc(Cl)nc3)O5)cc(C)cc2n1` (stereo not shown) [Example 115, (2-(2-methoxy-7-methylquinoxalin-5-yl)-4-methyl-7,8-dihydro-[1,4]dioxino[2′,3′:3,4]benzo [1,2-d]thiazol-7-yl)methyl (6-chloropyridin-3-yl)carbamate], the half-inhibitory concentration (IC50) was 1.4 nM.

For `COc1cnc2c(-c3nc4ccc5c(c4s3)OC[C@H](COC(=O)Nc3cnc(C)nc3)O5)cc(C(F)F)cc2c1` [Example 275, (R)-(2-(6-(difluoromethyl)-3-methoxyquinolin-8-yl)-7,8-dihydro-[1,4]dioxino [2′,3′:3,4]benzo[1,2-d]thiazol-7-yl)methyl (2-methylpyrimidin-5-yl)carbamate], the IC50 was determined as 12 nM.

Consider `Cc1ncc(NC(=O)OC[C@H]2Cc3c(c(F)cc4nc(-c5cc(Cl)cc6cc(OC(F)F)cnc56)sc34)O2)cn1` [Example 273, (R)-(2-(6-chloro-3-(difluoromethoxy)quinolin-8-yl)-5-fluoro-7,8-dihydrobenzofuro[5,4-d]thiazol-7-yl)methyl (2-methylpyrimidin-5-yl)carbamate], for which the 50% inhibitory concentration (IC50) was 6.4 nM.

Turning to `COc1cnc2c(-c3nc4cc(F)c5c(c4s3)C[C@](C)(COC(=O)Nc3cccnc3)O5)cc(C)cc2n1` [Example 183, (R)-(5-fluoro-2-(2-methoxy-7-methylquinoxalin-5-yl)-7-methyl-7,8-dihydrobenzofuro[5,4-d]thiazol-7-yl)methyl pyridin-3-ylcarbamate], the half-maximal inhibitory concentration (IC50) is 2.3 nM.

For the compound `COc1cnc2c(-c3nc4cc(F)c5c(c4s3)[C@H](C)[C@@H](CO)O5)cc(C#N)cc2n1` [Example 254, 8-((7S,8S)-5-fluoro-7-(hydroxymethyl)-8-methyl-7,8-dihydrobenzofuro[5,4-d]thiazol-2-y 1)-3-methoxyquinoxaline-6-carbonitrile], the IC50 was 0.6 nM.

As to `COc1cnc2c(-c3nc4c(Cl)cc5c(c4s3)OC[C@H](COC(=O)Nc3ccnnc3)O5)cc(C)cc2n1` [Example 34, (R)-(4-chloro-2-(2-methoxy-7-methylquinoxalin-5-yl)-7,8-dihydro-[1,4]dioxino[2′,3′:3,4]benzo[1,2-d]thiazol-7-yl)methyl pyridazin-4-ylcarbamate], the IC50 amounted to 3.3 nM.

On to `COc1cnc2c(-c3nc4c(C)cc5c(c4s3)OCC(COC(=O)Nc3ccc(N(C)C)nc3)O5)cc(C)cc2n1` (stereo not shown) [Example 116, (2-(2-methoxy-7-methylquinoxalin-5-yl)-4-methyl-7,8-dihydro-[1,4]dioxino[2′,3′:3,4]benzo[1,2-d]thiazol-7-yl)methyl (6-(dimethylamino)pyridin-3-yl)carbamate], for which the IC50 came out at 3.4 nM.
